Usually IC50 stands for the concentration needed to halve the response being measured. Read a high IC50 as lower potency.

The values that follow come from patent US20240383954A1, “PEPTIDE INHIBITORS OF INTERLEUKIN-23 RECEPTOR AND THEIR USE TO TREAT INFLAMMATORY DISEASES” (Janssen Biotech, Inc., priority 2020, published 2024).

The structures appear in SMILES notation. Positions of bridges follow the written chain, without caps; N, C: chain ends. Non-standard residues stand in square brackets, D forms with d. Residues, ends and D or L forms follow the SMILES beside them. *: point of attachment. Trp(7-Me) = Cc1cccc2c(C[C@H](N)C(=O)O)c[nH]c12; 2Nal = N[C@@H](Cc1ccc2ccccc2c1)C(=O)O; AEF = NCCOc1ccc(C[C@H](N)C(=O)O)cc1; αMeF = C[C@](N)(Cc1ccccc1)C(=O)O; Pen = CC(C)(S)[C@H](N)C(=O)O; Thp = NC1(C(=O)O)CCOCC1; X2 = c1c[nH]c(CN*)n1; X6 = c1cc(N*)n[nH]1; X7 = Nc1cccc(N*)c1; X4 = C1CC(N*)CCN1
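Note: cryopreserved PBMCs stimulated at 37 °C in 5% CO2, then lysed, with phosphorylated STAT3 quantified in lysates using a phospho-STAT panel kit.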

This experiment deals with IL-23R (Homo sapiens, UniProt Q5VWK5). The experiment is described as follows: cell-based. To be noted: PBMC pSTAT3 IC50 (nM), PBMCs from healthy donors, IL-23 5 ng/mL, 30 minutes, phosphorylated STAT3.
Chain of IL-23R (Q5VWK5 24-629): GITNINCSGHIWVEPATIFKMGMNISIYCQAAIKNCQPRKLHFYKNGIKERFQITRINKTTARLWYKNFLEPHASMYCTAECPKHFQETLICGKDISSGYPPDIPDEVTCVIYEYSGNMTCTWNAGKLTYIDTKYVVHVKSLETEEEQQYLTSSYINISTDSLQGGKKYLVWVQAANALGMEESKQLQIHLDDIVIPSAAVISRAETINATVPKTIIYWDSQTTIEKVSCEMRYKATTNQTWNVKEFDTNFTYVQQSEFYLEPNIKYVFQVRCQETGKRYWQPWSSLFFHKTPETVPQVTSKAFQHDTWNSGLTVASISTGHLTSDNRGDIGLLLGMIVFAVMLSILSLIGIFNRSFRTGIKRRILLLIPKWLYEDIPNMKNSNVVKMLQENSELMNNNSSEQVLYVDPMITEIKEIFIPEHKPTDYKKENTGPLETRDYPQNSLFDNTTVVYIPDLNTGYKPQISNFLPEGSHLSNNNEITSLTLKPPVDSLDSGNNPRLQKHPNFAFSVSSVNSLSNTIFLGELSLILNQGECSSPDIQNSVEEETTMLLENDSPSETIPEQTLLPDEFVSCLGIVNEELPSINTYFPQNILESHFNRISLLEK
Regarding `CC(=O)NCCCC[C@@H]1NC(=O)[C@H](Cc2c[nH]c3ccccc23)NC(=O)[C@H]([C@@H](C)O)NC(=O)[C@H](CC(N)=O)NC(=O)[C@@H](NC(C)=O)CSSC[C@@](C)(C(=O)N[C@@H](Cc2ccc(OCCN)cc2)C(=O)N[C@@H](Cc2ccc3ccccc3c2)C(=O)N[C@@](C)(CCCCN)C(=O)N[C@@H](CCCCNC(C)=O)C(=O)N[C@@H](CC(N)=O)C(=O)N[C@@](C)(Cc2ccccc2)C(N)=O)NC1=O` [Compound 122, Ac-[Cys]-N-T-W-[Lys(Ac)]-[aMeCys]-Phe[4-(2-aminoethoxy)]-[2-Nal]-[a-MeLys]-[Lys(Ac)]-N-[a-MePhe]-NH2], it took 54 nM to reach half-maximal inhibition (IC50).

For `CC(=O)N[C@H](CCCNC(=N)N)C(=O)N[C@H]1CCSC[C@@H](C(=O)N[C@@H](Cc2ccc(OCCN)cc2)C(=O)N[C@@H](Cc2ccc3ccccc3c2)C(=O)NC2(C(=O)N[C@@H](CCC(=O)O)C(=O)N[C@@H](CC(N)=O)C(=O)N[C@@](C)(Cc3ccccc3)C(N)=O)CCOCC2)NC(=O)[C@H](CCC(N)=O)NC(=O)[C@H](Cc2c[nH]c3ccccc23)NC(=O)[C@H]([C@@H](C)O)NC(=O)[C@H](CCC(N)=O)NC1=O` [Compound 123, Ac-[(D)Arg]-[Abu]-Q-T-W-Q-[Cys]-Phe[4-(2-aminoethoxy)]-[2-Nal]-[THP]-E-N-[a-MePhe]-NH2], half-maximal inhibition (IC50) was put at 11 nM.

In turn, `CC(=O)NCCCC[C@@H]1NC(=O)[C@H](Cc2c[nH]c3c(C)cccc23)NC(=O)[C@H]([C@@H](C)O)NC(=O)[C@H](CC(N)=O)NC(=O)[C@@H](NC(=O)[C@@H](CCCNC(=N)N)NC(C)=O)C(C)(C)SSC(C)(C)[C@@H](C(=O)N[C@@H](Cc2ccc(OCCN)cc2)C(=O)N[C@@H](Cc2ccc3ccccc3c2)C(=O)NC2(C(=O)N[C@@H](CCC(=O)O)C(=O)N[C@@H](CC(N)=O)C(=O)N[C@@](C)(Cc3ccccc3)C(N)=O)CCOCC2)NC1=O` [Compound 124, Ac-[(D)Arg]-[Pen]-N-T-[W(7-Me)]-[Lys(Ac)]-[Pen]-Phe[4-(2-aminoethoxy)]-[2-Nal]-[THP]-E-N-[a-MePhe]-NH2] (Ac-[dR][Pen]NT[Trp(7-Me)]K(Ac)[Pen][AEF][2Nal][Thp]EN[αMeF]-NH2; disulfide 2-7) gave an IC50 of 11 nM.

For `CC(=O)N[C@H](CCCNC(=N)N)C(=O)N[C@@H]1C(=O)N[C@@H](CCC(N)=O)C(=O)N[C@@H]([C@@H](C)O)C(=O)N[C@@H](Cc2c[nH]c3ccccc23)C(=O)N[C@@H](CCC(N)=O)C(=O)N[C@H](C(=O)N[C@@H](Cc2ccc(OCCN)cc2)C(=O)N[C@@H](Cc2ccc3ccccc3c2)C(=O)NC2(C(=O)N[C@@H](CCC(=O)O)C(=O)N[C@@H](CC(N)=O)C(=O)N[C@@H](CC(=O)NC3CCNCC3)C(N)=O)CCOCC2)C(C)(C)SSC1(C)C` [Compound 127, Ac-[(D)Arg]-[Pen]-Q-T-W-Q-[Pen]-Phe[4-(2-aminoethoxy)]-[2-Nal]-[THP]-E-N-[(N-Pip)Asn]-NH2] (Ac-[dR][Pen]QTWQ[Pen][AEF][2Nal][Thp]END(X4)-NH2; disulfide 2-7), the IC50 came to 48 nM.

For the molecule `CC(=O)N[C@H](CCCNC(=N)N)C(=O)N[C@@H]1C(=O)N[C@@H](CCC(N)=O)C(=O)N[C@@H]([C@@H](C)O)C(=O)N[C@@H](Cc2c[nH]c3ccccc23)C(=O)N[C@@H](CCC(N)=O)C(=O)N[C@H](C(=O)N[C@@H](Cc2ccc(OCCN)cc2)C(=O)N[C@@H](Cc2ccc3ccccc3c2)C(=O)NC2(C(=O)N[C@@H](CCC(=O)O)C(=O)N[C@@H](CC(N)=O)C(=O)N[C@@H](CC(=O)Nc3cccc(N)c3)C(N)=O)CCOCC2)C(C)(C)SSC1(C)C` [Compound 130, Ac-[(D)Arg]-[Pen]-Q-T-W-Q-[Pen]-Phe[4-(2-aminoethoxy)]-[2-Nal]-[THP]-E-N-[(N-(3-aminophenyl))Asn]-NH2] (Ac-[dR][Pen]QTWQ[Pen][AEF][2Nal][Thp]END(X7)-NH2; disulfide 2-7), 9.2 nM corresponded to half-maximal inhibition (IC50).

On to `CC(=O)N[C@H](CCCNC(=N)N)C(=O)N[C@@H]1C(=O)N[C@@H](CCC(N)=O)C(=O)N[C@@H]([C@@H](C)O)C(=O)N[C@@H](Cc2c[nH]c3ccccc23)C(=O)N[C@@H](CCC(N)=O)C(=O)N[C@H](C(=O)N[C@@H](Cc2ccc(OCCN)cc2)C(=O)N[C@@H](Cc2ccc3ccccc3c2)C(=O)NC2(C(=O)N[C@@H](CCC(=O)O)C(=O)N[C@@H](CC(N)=O)C(=O)N[C@@H](CC(=O)Nc3cc[nH]n3)C(N)=O)CCOCC2)C(C)(C)SSC1(C)C` [Compound 133, Ac-[(D)Arg]-[Pen]-Q-T-W-Q-[Pen]-Phe[4-(2-aminoethoxy)]-[2-Nal]-[THP]-E-N-[(N-(3-Pyz))Asn]-NH2] (Ac-[dR][Pen]QTWQ[Pen][AEF][2Nal][Thp]END(X6)-NH2; disulfide 2-7), for which it took 21 nM to reach half-maximal inhibition (IC50). This IC50 lies about 2.3-fold higher than the previous one.

`CC(=O)N[C@H](CCCNC(=N)N)C(=O)N[C@@H]1C(=O)N[C@@H](CCC(N)=O)C(=O)N[C@@H]([C@@H](C)O)C(=O)N[C@@H](Cc2c[nH]c3ccccc23)C(=O)N[C@@H](CCC(N)=O)C(=O)N[C@H](C(=O)N[C@@H](Cc2ccc(OCCN)cc2)C(=O)N[C@@H](Cc2ccc3ccccc3c2)C(=O)NC2(C(=O)N[C@@H](CCC(=O)O)C(=O)N[C@@H](CC(N)=O)C(=O)N[C@@H](CC(=O)NCc3ncc[nH]3)C(N)=O)CCOCC2)C(C)(C)SSC1(C)C` [Compound 137, Ac-[(D)Arg]-[Pen]-Q-T-W-Q-[Pen]-Phe[4-(2-aminoethoxy)]-[2-Nal]-[THP]-E-N-[(N-(imidazol-2-yl)methyl)Asn]-NH2] (Ac-[dR][Pen]QTWQ[Pen][AEF][2Nal][Thp]END(X2)-NH2; disulfide 2-7) had an IC50 of 14 nM. Against the preceding molecule, the IC50 is about 1.5-fold lower.

The molecule `CC(=O)NCCCC[C@@H]1NC(=O)[C@H](Cc2c[nH]c3c(C)cccc23)NC(=O)[C@H]([C@@H](C)O)NC(=O)[C@H](CC(N)=O)NC(=O)[C@@H](NC(C)=O)C(C)(C)SSC(C)(C)[C@@H](C(=O)N[C@@H](Cc2ccc(OCCN)cc2)C(=O)N[C@@H](Cc2ccc3ccccc3c2)C(=O)NC2(C(=O)N[C@@H](CCCCNC(=O)C(F)(F)F)C(=O)N[C@@H](CC(N)=O)C(=O)N[C@@](C)(Cc3ccccc3)C(N)=O)CCOCC2)NC1=O` [Compound 138, Ac-[Pen]-N-T-[W(7-Me)]-[Lys(Ac)]-[Pen]-Phe[4-(2-aminoethoxy)]-[2-Nal]-[THP]-[Lys(COCF3)]-N-[a-MePhe]-NH2] showed a half-maximal inhibitory concentration (IC50) of 7.6 nM.

Consider `CC(=O)NCCCC[C@@H]1NC(=O)[C@H](Cc2c[nH]c3c(C)cccc23)NC(=O)[C@H]([C@@H](C)O)NC(=O)[C@H](CC(N)=O)NC(=O)[C@@H](NC(C)=O)C(C)(C)SSC(C)(C)[C@@H](C(=O)N[C@@H](Cc2ccc(OCCN)cc2)C(=O)N[C@@H](Cc2ccc3ccccc3c2)C(=O)NC2(C(=O)N[C@@H](CCCCNC(=O)C(C)(C)C)C(=O)N[C@@H](CC(N)=O)C(=O)N[C@@](C)(Cc3ccccc3)C(N)=O)CCOCC2)NC1=O` [Compound 139, Ac-[Pen]-N-T-[W(7-Me)]-[Lys(Ac)]-[Pen]-Phe[4-(2-aminoethoxy)]-[2-Nal]-[THP]-[Lys(COtBu)]-N-[a-MePhe]-NH2], for which inhibition was half-maximal at 6.6 nM (IC50). This IC50 and that of the molecule before are within 1.5-fold of each other.

For the molecule `CC(=O)NCCCC[C@@H]1NC(=O)[C@H](Cc2c[nH]c3c(C)cccc23)NC(=O)[C@H]([C@@H](C)O)NC(=O)[C@H](CC(N)=O)NC(=O)[C@@H](NC(C)=O)C(C)(C)SSC(C)(C)[C@@H](C(=O)N[C@@H](Cc2ccc(OCCN)cc2)C(=O)N[C@@H](Cc2ccc3ccccc3c2)C(=O)NC2(C(=O)N[C@@H](CCCCNC(=O)C(F)(F)F)C(=O)N[C@@H](CC(N)=O)C(=O)NC3(C(N)=O)CCOCC3)CCOCC2)NC1=O` [Compound 140, Ac-[Pen]-N-T-[W(7-Me)]-[Lys(Ac)]-[Pen]-Phe[4-(2-aminoethoxy)]-[2-Nal]-[THP]-[Lys(COCF3)]-N-[THP]-NH2], the IC50 amounted to 2.6 nM.
